Results from patent US11814367B2, “Inhibitors of glycogen synthase 1 (GYS1) and methods of use thereof” (Maze Therapeutics, Inc., priority 2021, dated 2023).

What was measured:
[1] = target: hGYS2 enzyme (recombinant hGYS2/GN1 protein) (Homo sapiens (Human), UniProt P54840); experiment: GYS2 coupled enzyme assay (PK/LDH); assay type: biochemical; conditions: geometric mean of at least 2 assay runs on separate days, read-out: Avg_IC50
In short: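 Continuous PK/LDH-coupled readout of NADH loss at 340 nm over 10 min, with 200 nM hGYS2/GN1 and 2 mM each of UDP-glucose, glucose-6-phosphate and PEP, in 50 mM Tris pH 7.5 with 0.2% glycogen and 2.5% DMSO. Slopes were normalized to controls and IC50s fit to a Hill curve from duplicates.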

[2] = target: hGYS1 enzyme (recombinant hGYS1/GN1 protein) (Homo sapiens (Human), UniProt P13807); experiment: GYS1 coupled enzyme assay (PK/LDH); assay type: biochemical; conditions: hGYS1/GN1 50 nM, UDP-Glucose 0.8 mM, G6P 1 mM; geometric mean of at least 2 runs
Sequence of hGYS1 enzyme (recombinant hGYS1/GN1 protein) (P13807 whole entry): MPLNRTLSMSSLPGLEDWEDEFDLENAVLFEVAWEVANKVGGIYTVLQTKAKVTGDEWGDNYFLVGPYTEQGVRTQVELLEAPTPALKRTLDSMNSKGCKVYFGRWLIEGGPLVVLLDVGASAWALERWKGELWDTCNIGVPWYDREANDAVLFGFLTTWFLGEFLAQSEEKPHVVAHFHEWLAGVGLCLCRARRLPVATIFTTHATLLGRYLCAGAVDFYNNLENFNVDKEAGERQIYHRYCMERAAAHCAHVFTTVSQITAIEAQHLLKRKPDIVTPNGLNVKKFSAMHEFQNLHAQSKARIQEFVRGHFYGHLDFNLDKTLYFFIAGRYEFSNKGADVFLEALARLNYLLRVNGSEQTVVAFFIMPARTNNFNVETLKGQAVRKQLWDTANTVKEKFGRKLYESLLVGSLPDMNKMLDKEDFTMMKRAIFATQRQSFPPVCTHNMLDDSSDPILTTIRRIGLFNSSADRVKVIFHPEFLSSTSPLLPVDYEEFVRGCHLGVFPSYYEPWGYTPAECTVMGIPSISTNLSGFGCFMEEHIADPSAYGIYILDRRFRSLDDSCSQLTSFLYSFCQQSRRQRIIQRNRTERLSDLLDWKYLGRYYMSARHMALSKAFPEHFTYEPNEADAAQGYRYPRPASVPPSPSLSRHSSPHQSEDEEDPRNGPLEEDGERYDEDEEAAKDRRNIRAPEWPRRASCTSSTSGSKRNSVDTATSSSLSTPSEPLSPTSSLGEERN
Sequence of hGYS1 enzyme (recombinant hGYS1/GN1 protein) (P46976 whole entry partner): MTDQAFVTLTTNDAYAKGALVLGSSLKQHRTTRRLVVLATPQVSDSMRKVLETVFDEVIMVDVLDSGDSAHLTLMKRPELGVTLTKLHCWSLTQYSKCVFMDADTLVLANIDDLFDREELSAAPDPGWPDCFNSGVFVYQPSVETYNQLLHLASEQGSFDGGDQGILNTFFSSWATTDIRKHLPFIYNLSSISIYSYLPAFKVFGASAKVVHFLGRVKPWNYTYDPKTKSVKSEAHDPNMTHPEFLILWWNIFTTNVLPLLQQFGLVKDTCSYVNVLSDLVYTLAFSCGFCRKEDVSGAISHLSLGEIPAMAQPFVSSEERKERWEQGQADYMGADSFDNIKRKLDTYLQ

[3] = tested on: hGYS1 enzyme / glycogen synthesis in HeLa cells; experiment: GYS1 cell based assay (glycogen synthesis, Glucose-glo); design: species or system human; conditions: 24 h incubation, 20 mM glucose, geometric mean of at least 2 runs
In short: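 HeLa cells starved 24 h in medium containing only 1× Glutamax were plated onto compound in medium with 20 mM glucose (1% DMSO final) for 24 h, 37 °C, 5% CO2. Acid lysates were Tris-quenched, glucoamylase-digested (pH 5.3, 1 h, 37 °C) and read by Glucose-glo luminescence. IC50 came from Hill fits, as geometric mean of ≥2 runs.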

Sequence of hGYS2 enzyme (recombinant hGYS2/GN1 protein) (P54840 whole entry): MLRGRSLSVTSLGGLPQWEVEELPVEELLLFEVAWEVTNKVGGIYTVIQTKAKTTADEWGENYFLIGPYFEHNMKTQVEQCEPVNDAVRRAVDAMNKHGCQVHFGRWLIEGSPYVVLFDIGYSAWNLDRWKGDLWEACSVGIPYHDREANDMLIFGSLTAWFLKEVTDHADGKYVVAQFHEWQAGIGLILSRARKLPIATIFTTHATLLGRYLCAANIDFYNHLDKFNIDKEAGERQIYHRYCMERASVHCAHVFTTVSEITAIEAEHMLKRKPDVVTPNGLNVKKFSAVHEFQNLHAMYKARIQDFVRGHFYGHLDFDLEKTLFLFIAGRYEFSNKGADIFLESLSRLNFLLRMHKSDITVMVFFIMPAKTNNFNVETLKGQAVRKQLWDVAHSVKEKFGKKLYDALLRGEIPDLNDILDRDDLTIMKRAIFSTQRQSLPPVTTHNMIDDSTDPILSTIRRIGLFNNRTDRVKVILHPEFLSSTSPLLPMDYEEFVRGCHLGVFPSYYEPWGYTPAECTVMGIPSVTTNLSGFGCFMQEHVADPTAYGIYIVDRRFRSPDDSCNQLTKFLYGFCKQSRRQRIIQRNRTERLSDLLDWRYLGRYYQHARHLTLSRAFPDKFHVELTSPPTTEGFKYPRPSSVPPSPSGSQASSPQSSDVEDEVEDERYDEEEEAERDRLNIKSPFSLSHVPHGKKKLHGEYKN
Sequence of hGYS2 enzyme (recombinant hGYS2/GN1 protein) (P46976 whole entry partner): as the sequence (P46976 whole entry partner) above

| IC50 [1] [nM] | IC50 [2] [nM] | IC50 [3] [nM] | IC50 ([3]; Homo sapiens, HeLa, 24 h) [nM] | SMILES |
| --- | --- | --- | --- | --- |
| > 100000 | 121 | 1230 |  | CC(C)c1ccc([C@@H](NC(=O)[C@@H]2C[C@@H](F)CN2C(=O)C(C)n2ccnc2)c2ccccc2)cc1F (single isomer, unassigned) [Compound 768, (2S,4R)-4-fluoro-N-[(S)-[3-fluoro-4-(propan-2-yl)phenyl](phenyl)methyl]-1-[(2R) or (2S)-2-(1H-imidazol-1-yl)propanoyl]pyrrolidine-2-carboxamide] |
| > 100000 | 22 |  | 290 | CC(C)c1ccc([C@@H](NC(=O)[C@@H]2C[C@@H](F)CN2C(=O)C(C)c2cnn[nH]2)c2ccccc2)cc1F (single isomer, unassigned) [Compound 769, (2S,4R)-4-fluoro-N-[(S)-[3-fluoro-4-(propan-2-yl)phenyl](phenyl)methyl]-1-[(2R) or (2S)-2-(1H-1,2,3-triazol-5-yl)propanoyl]pyrrolidine-2-carboxamide] |
| > 100000 | 75 |  | 1290 | C[C@H](NC(=O)N(C)C)C(=O)N1C[C@H](F)C[C@H]1C(=O)N[C@@H](c1ccccc1)c1ccc(C2CC2)c(F)n1 [Compound 310, (2S,4R)-N-[(S)-(5-cyclopropyl-6-fluoropyridin-2-yl)(phenyl)methyl]-1-[(2S)-2-[(dimethylcarbamoyl)amino]propanoyl]-4-fluoropyrrolidine-2-carboxamide] |
| > 100000 | 59 |  | 1830 | COCCN1CCN(C(=O)OCC(=O)N2C[C@H](F)C[C@H]2C(=O)N[C@@H](c2ccccc2)c2ccc(C3(C)CC3)c(F)c2)CC1 [Compound 579, 2-[(2S,4R)-4-fluoro-2-{[(S)-[3-fluoro-4-(1-methylcyclopropyl)phenyl](phenyl)methyl]carbamoyl}pyrrolidin-1-yl]-2-oxoethyl 4-(2-methoxyethyl) piperazine-1-carboxylate] |
| > 100000 | 39 |  | 860 | Cc1cnc(CC(=O)N2C[C@H](F)C[C@H]2C(=O)N[C@@H](c2ccccc2)c2ccc(C3CC3)c(F)n2)o1 [Compound 313, (2S,4R)-N-[(S)-(5-cyclopropyl-6-fluoropyridin-2-yl)(phenyl)methyl]-4-fluoro-1-[2-(5-methyl-1,3-oxazol-2-yl)acetyl]pyrrolidine-2-carboxamide] |
| > 100000 | 7 |  | 120 | CC(C)c1ccc([C@@H](NC(=O)[C@@H]2C[C@@H](F)CN2C(=O)Cn2ncc(N3CCC3)n2)c2ccccc2)nc1F [Compound 412, (2S,4R)-1-{2-[4-(azetidin-1-yl)-2H-1,2,3-triazol-2-yl]acetyl}-4-fluoro-N-[(S)-[6-fluoro-5-(propan-2-yl)pyridin-2-yl](phenyl)methyl] pyrrolidine-2-carboxamide] |
| > 100000 | 14 |  | 220 | O=C(N[C@@H](c1ccccc1)c1ccc(C2CC(F)(F)C2)c(F)n1)[C@@H]1C[C@@H](F)CN1C(=O)Cn1nnnc1C(F)F [Compound 513, (2S,4R)-N-[(S)-[5-(3,3-difluorocyclobutyl)-6-fluoropyridin-2-yl](phenyl)methyl]-1-{2-[5-(difluoromethyl)-1H-1,2,3,4-tetrazol-1-yl]acetyl}-4-fluoropyrrolidine-2-carboxamide] |
| > 100000 | 6 |  | 160 | CC(C)c1ccc([C@@H](NC(=O)[C@@H]2C[C@@H](F)CN2C(=O)Cn2ncc(N3CC(F)(F)C3)n2)c2ccccc2)nc1F [Compound 413, (2S,4R)-1-{2-[4-(3,3-difluoroazetidin-1-yl)-2H-1,2,3-triazol-2-yl]acetyl}-4-fluoro-N-[(S)-[6-fluoro-5-(propan-2-yl)pyridin-2-yl](phenyl)methyl] pyrrolidine-2-carboxamide] |
| > 100000 | 547 |  | 6040 | O=C(N[C@@H](c1ccccc1)c1ccc(C2CC2)c(F)c1)[C@@H]1C[C@@H](F)CN1C(=O)CN1CCNCC1=O [Compound 465, (2S,4R)-N-[(S)-(4-cyclopropyl-3-fluorophenyl)(phenyl)methyl]-4-fluoro-1-[2-(2-oxopiperazin-1-yl)acetyl]pyrrolidine-2-carboxamide] |
| > 100000 | 109 | 2390 |  | CC(C(=O)N1C[C@H](F)C[C@H]1C(=O)N[C@@H](c1ccccc1)c1ccc(C2(C)CC2)c(F)n1)n1cnc2ccccc21 (single isomer, unassigned) [Compound 587, (2S,4R)-1-((R) or (S)-2-(1H-benzo[d]imidazol-1-yl)propanoyl)-4-fluoro-N—((S)-(6-fluoro-5-(1-methylcyclopropyl)pyridin-2-yl)(phenyl)methyl)pyrrolidine-2-carboxamide] |
| > 100000 | 8 |  | 150 | CC(C)c1ccc([C@@H](NC(=O)[C@@H]2C[C@@H](F)CN2C(=O)CNC(=O)N2CCC2)c2ccccc2)nc1F [Compound 399, (2S,4R)-1-{2-[(azetidine-1-carbonyl)amino]acetyl}-4-fluoro-N-[(S)-[6-fluoro-5-(propan-2-yl)pyridin-2-yl](phenyl)methyl] pyrrolidine-2-carboxamide] |
| > 100000 | 39 |  | 990 | CC(C)c1ccc([C@@H](NC(=O)[C@@H]2C[C@@H](F)CN2C(=O)Cn2nnc(C(F)F)n2)c2ccccc2)nc1 [Compound 256, (2S,4R)-1-{2-[5-(difluoromethyl)-2H-1,2,3,4-tetrazol-2-yl]acetyl}-4-fluoro-N-[(S)-phenyl[5-(propan-2-yl)pyridin-2-yl]methyl]pyrrolidine-2-carboxamide] |
| > 100000 | 7 |  | 1190 | CC(C)c1ccc([C@@H](NC(=O)[C@@H]2C[C@@H](F)CN2C(=O)CNC(=O)N2CCNCC2)c2ccccc2)cc1F [Compound 365, N-{2-[(2S,4R)-4-fluoro-2-{[(S)-[3-fluoro-4-(propan-2-yl)phenyl](phenyl)methyl]carbamoyl}pyrrolidin-1-yl]-2-oxoethyl}piperazine-1-carboxamide] |
| > 100000 | 149 |  | 1530 | CC(C)c1ccc([C@@H](NC(=O)[C@@H]2CC[C@H](C)N2C(=O)Cc2cnn[nH]2)c2ccccc2)nc1 [Compound 280, (2S,5S)-5-methyl-N-[(S)-phenyl[5-(propan-2-yl)pyridin-2-yl]methyl]-1-[2-(1H-1,2,3-triazol-5-yl)acetyl]pyrrolidine-2-carboxamide] |
| > 100000 | 93 |  | 5550 | O=C(N[C@@H](c1ccccc1)c1ccc(C2CC2)c(F)c1)[C@@H]1C[C@@H](F)CN1C(=O)Cc1n[nH]c(=O)[nH]1 [Compound 491, (2S,4R)-N-[(S)-(4-cyclopropyl-3-fluorophenyl)(phenyl)methyl]-4-fluoro-1-[2-(5-oxo-4,5-dihydro-1H-1,2,4-triazol-3-yl)acetyl]pyrrolidine-2-carboxamide] |
| > 100000 | 23 |  | 860 | Cc1cn(CC(=O)N2C[C@H](F)C[C@H]2C(=O)N[C@@H](c2ccccc2)c2ccc(C3CC3)c(F)c2)c(=O)[nH]c1=O [Compound 442, (2S,4R)-N-[(S)-(4-cyclopropyl-3-fluorophenyl)(phenyl)methyl]-4-fluoro-1-[2-(5-methyl-2,4-dioxo-1,2,3,4-tetrahydropyrimidin-1-yl)acetyl]pyrrolidine-2-carboxamide] |
